From ChEMBL document CHEMBL1121990, “Synthesis and pharmacological activity of 6-aryl-2-azabicyclo[4.2.1]nonanes” (1982)

System: Mus musculus
Assay: Analgesic activity was determined after subcutaneous administration in mice using Eddy hot plate assay or Nilsen assay.
Format: functional
Conditions: sc

SMILES | ED50
COc1cccc(C23CCCN(C)C(CC2)C3)c1.O=C(O)C(=O)O (stereo not drawn) | 5.7 mg/kg
CN1CCCC2(c3ccccc3)CCC1C2.O=C(O)C(=O)O (stereo not drawn) | 11.7 mg/kg
Br.CN1CCCC2(c3cccc(O)c3)CCC1C2 (stereo not drawn) | 16.2 mg/kg
Br.Oc1cccc(C23CCCN(CCc4ccccc4)C(CC2)C3)c1 (stereo not drawn) | 4.5 mg/kg
Br.C=CCN1CCCC2(c3cccc(OC)c3)CCC1C2 (stereo not drawn) | 20 mg/kg
Br.COc1cccc(C23CCCNC(CC2)C3)c1 (stereo not drawn) | 4 mg/kg
Br.COc1cccc(C23CCCN(CCc4ccccc4)C(CC2)C3)c1 (stereo not drawn) | 10.9 mg/kg
COc1ccc2c3c1O[C@H]1[C@@H](O)C=C[C@H]4[C@@H](C2)N(C)CC[C@@]341.COc1ccc2c3c1O[C@H]1[C@@H](O)C=C[C@H]4[C@@H](C2)N(C)CC[C@@]341.O.O=P(O)(O)O.O=P(O)(O)O [CODEINE PHOSPHATE] | 6.8 mg/kg
